Measurements as given in US8895509B2, “MIR-200 family induces mesenchymal-to-epithelial transition (MET) in ovarian cancer cells” (Georgia Tech Research Corporation, priority 2010, dated 2014).

Tests used:
[1] = tested on: HEY cells; test: sensitivity of transfected HEY cells to cisplatin; assay type: cell-based, human; conditions: miR-429 vs negative control miRNA
Method: Cultures of the mesenchymal HEY cells were transfected with a negative control (NC) miRNA or miR-429 using Lipofectamine 2000 (Invitrogen) and treated with increasing concentrations of cisplatin. (0.1, 0.5, 1, 3, 5, 7, 10, 15, 20, 30, 50 μM).

[2] = tested on: HEY cells; test: microarray profiling (Affymetrix HG-U133 Plus 2.0) of miR-429 transfected HEY cells; assay type: cell-based, human; conditions: for Fold-change: miR-429 transfected HEY cells
Method: 6×10^4 cells per well were seeded in 24-well plates. After 24 h, cells were transfected with 30 nM of miR-429 and miR-320 miRNA oligonucleotides (Ambion, Austin, Tex.) using Lipofectamine 2000 reagent (Invitrogen, Carlsbad, Calif.). The Ambion Pre-miRNA Precursor Negative Control was used as a control. Three days after transfection, cells were split and transfected again. This process was repeated every 3 days until 21 days when cells were assayed for response.
Microarray analyses were performed using the Affymetrix system (HG-U133 Plus 2.0; Santa Clara, Calif.) as previously described [Bowen et al., BMC Med Genomics 2009, 2:71]. Briefly, the expression data were analyzed using MAS 5.0 Statistical Algorithm encoded in the Affymetrix Expression Console application. The expression values were normalized across samples by Z-score calculation using Spotfire Decision Site software. […] Gene enrichment analyses were carried out using GeneGO (http://www.genego.com/) gene ontology software.

## miR-429: miR-200 family member; mature miRNA UAAUACUGUCUGGUAAAACCGU (SEQ ID NO: 6); miRNA oligonucleotide (Ambion) transfected at 30 nM (listed as RNA, chemistry not given here; listed as Homo sapiens) [miR-200 family member; miRNA oligonucleotide (Ambion) transfected at 30 nM]
[1]
  sensitivity to cisplatin: increased significantly
[2]; gene AARS
  Fold change (miR-429 transfected HEY cells relative to negative controls): −2.57
[2]; gene ABCF2
  Fold change (miR-429 transfected HEY cells relative to negative controls): −3.48
[2]; gene ALDH1L2
  Fold change (miR-429 transfected HEY cells relative to negative controls): −11.31
[2]; gene ANK2
  Fold change (miR-429 transfected HEY cells relative to negative controls): −3.58
[2]; gene ANKRD23
  Fold change (miR-429 transfected HEY cells relative to negative controls): −7.62
[2]; gene ASAM
  Fold change (miR-429 transfected HEY cells relative to negative controls): −3.48
[2]; gene ASNS
  Fold change (miR-429 transfected HEY cells relative to negative controls): −6.82
[2]; gene B3GALNT2
  Fold-change: −2.16
[2]; gene BCHE
  Fold change (miR-429 transfected HEY cells relative to negative controls): −2.93
[2]; gene C6orf105
  Fold change (miR-429 transfected HEY cells relative to negative controls): −2.48
[2]; gene C11orf57
  Fold change (miR-429 transfected HEY cells relative to negative controls): −2.41
[2]; gene C12orf39
  Fold change (miR-429 transfected HEY cells relative to negative controls): −10.06
[2]; gene C12orf55
  Fold change (miR-429 transfected HEY cells relative to negative controls): −6.06
[2]; gene C17orf51
  Fold change (miR-429 transfected HEY cells relative to negative controls): −3.46
[2]; gene CAV2 (epithelial marker)
  change in expression by microarray: up-regulated
[2]; gene CBS
  Fold change (miR-429 transfected HEY cells relative to negative controls): −2.68
[2]; gene CCDC148
  Fold change (miR-429 transfected HEY cells relative to negative controls): −3.39
[2]; gene CCDC152
  Fold change (miR-429 transfected HEY cells relative to negative controls): −3.10
[2]; gene CCND2
  Fold change (miR-429 transfected HEY cells relative to negative controls): −4.03
[2]; gene CCNJ
  Fold change (miR-429 transfected HEY cells relative to negative controls): −2.45
[2]; gene CDC42EP1
  Fold change (miR-429 transfected HEY cells relative to negative controls): −3.48
[2]; gene CDKAL1
  Fold change (miR-429 transfected HEY cells relative to negative controls): −2.64
[2]; gene CDO1
  Fold change (miR-429 transfected HEY cells relative to negative controls): −13.45
[2]; gene CFL2
  Fold-change: −1.75
[2]; gene CHST10
  Fold change (miR-429 transfected HEY cells relative to negative controls): −4.03
[2]; gene CLGN
  Fold change (miR-429 transfected HEY cells relative to negative controls): −2.79
[2]; gene COLEC12
  Fold change (miR-429 transfected HEY cells relative to negative controls): −16.11
[2]; gene CXCL3
  Fold change (miR-429 transfected HEY cells relative to negative controls): −2.57
[2]; gene CYCS
  Fold change (miR-429 transfected HEY cells relative to negative controls): −2.73
[2]; gene DDR2
  Fold change (miR-429 transfected HEY cells relative to negative controls): −2.68
[2]; gene DNAJB4
  Fold-change: −1.53
[2]; gene DPY19L1
  Fold-change: −1.64
[2]; gene DSP (epithelial marker)
  change in expression by microarray: up-regulated
[2]; gene EIF2B5
  Fold-change: −2.10
[2]; gene EPCAM (epithelial marker)
  change in expression by microarray: up-regulated
[2]; gene EPHB1
  Fold change (miR-429 transfected HEY cells relative to negative controls): −4.06
[2]; gene ERN1
  Fold change (miR-429 transfected HEY cells relative to negative controls): −3.51
[2]; gene EXOSC6
  Fold change (miR-429 transfected HEY cells relative to negative controls): −2.87
[2]; gene F2RL2
  Fold change (miR-429 transfected HEY cells relative to negative controls): −5.35
[2]; gene FLJ34077
  Fold change (miR-429 transfected HEY cells relative to negative controls): −2.73
[2]; gene FOXP3
  Fold change (miR-429 transfected HEY cells relative to negative controls): −3.76
[2]; gene GALNT12
  Fold change (miR-429 transfected HEY cells relative to negative controls): −2.39
[2]; gene GART
  Fold change (miR-429 transfected HEY cells relative to negative controls): −3.94
[2]; gene GAS7
  Fold change (miR-429 transfected HEY cells relative to negative controls): −12.55
[2]; gene GLIPR1
  Fold change (miR-429 transfected HEY cells relative to negative controls): −2.73
[2]; gene GLT8D2
  Fold change (miR-429 transfected HEY cells relative to negative controls): −4.76
[2]; gene GPATCH4
  Fold change (miR-429 transfected HEY cells relative to negative controls): −2.87
[2]; gene GREM1
  Fold-change: −2.10
[2]; gene GRK4
  Fold change (miR-429 transfected HEY cells relative to negative controls): −3.14
[2]; gene HIF3A
  Fold change (miR-429 transfected HEY cells relative to negative controls): −3.12
[2]; gene HORMAD1
  Fold change (miR-429 transfected HEY cells relative to negative controls): −10.48
[2]; gene HS6ST3
  Fold change (miR-429 transfected HEY cells relative to negative controls): −2.64
[2]; gene HSPA9
  Fold change (miR-429 transfected HEY cells relative to negative controls): −2.48
[2]; gene INTS4
  Fold change (miR-429 transfected HEY cells relative to negative controls): −2.81
[2]; gene JDP2
  Fold change (miR-429 transfected HEY cells relative to negative controls): −3.46
[2]; gene KIAA1853
  Fold change (miR-429 transfected HEY cells relative to negative controls): −3.32
[2]; gene KLHL13
  Fold change (miR-429 transfected HEY cells relative to negative controls): −2.57
[2]; gene LDLRAD3
  Fold-change: −1.74
[2]; gene LMO4
  Fold change (miR-429 transfected HEY cells relative to negative controls): −3.14
[2]; gene LOC148189
  Fold change (miR-429 transfected HEY cells relative to negative controls): −2.69
